{"source": "patent US7250441B2", "about": "“Carbazole and cyclopentaindole derivatives to treat infection with Hepatitis C virus” (priority 2004, dated 2007)", "biological_target": "T1, HCV RdRp NS5B d21BK (NS5B from the BK strain, genotype 1b) (Hepatitis C virus genotype 1b, UniProt P26663)", "T1 construct": "NS5B from the BK strain (genotype 1b) is expressed in E coli as a protein in which the 21 C-terminal amino acids are replaced; made in house; host or cells: E. coli", "T1 sequence (P26663 2420-2989)": "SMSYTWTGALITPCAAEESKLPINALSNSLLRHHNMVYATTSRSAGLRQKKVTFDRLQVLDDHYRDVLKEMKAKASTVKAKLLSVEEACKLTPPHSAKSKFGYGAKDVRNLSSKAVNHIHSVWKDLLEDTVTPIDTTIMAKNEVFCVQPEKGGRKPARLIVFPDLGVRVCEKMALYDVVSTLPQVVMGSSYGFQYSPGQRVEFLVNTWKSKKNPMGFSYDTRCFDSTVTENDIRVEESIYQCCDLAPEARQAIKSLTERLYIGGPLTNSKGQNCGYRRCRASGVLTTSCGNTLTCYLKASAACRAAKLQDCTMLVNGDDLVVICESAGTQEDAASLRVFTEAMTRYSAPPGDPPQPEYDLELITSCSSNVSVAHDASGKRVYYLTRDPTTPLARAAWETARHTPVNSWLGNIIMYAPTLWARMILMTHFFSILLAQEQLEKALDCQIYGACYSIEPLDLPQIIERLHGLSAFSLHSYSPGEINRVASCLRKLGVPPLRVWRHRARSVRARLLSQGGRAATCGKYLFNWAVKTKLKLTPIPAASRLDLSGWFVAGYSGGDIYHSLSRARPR", "assay": "Hepatitis C polymerase inhibition assay, radioactive nucleotide incorporation with filter capture", "format": "biochemical", "from_the_text": "The ability of the compounds of formula (I) to inhibit Hepatitis C Polymerase was established by the following experimental procedure.\nNS5B from the BK strain (genotype 1b) is expressed in E coli as a protein in which the 21 C-terminal amino acids are replaced with a short linker and a hexahistidine tag ([…]). The purified protein is mixed with radioactive nucleotides and allowed to replicate a heteropolymeric RNA substrate, primed by an endogenous short hairpin, resulting in an approximately 760 nt product. The radioactive product is captured on a filter and quantitated after removal of the unincorporated nucleotides.\n(1) Compounds 10 μl at 10 μg/ml in 15% dimethylsulfoxide (DMSO)\nWhen starting from 100 μg/ml compound stock in 1% DMSO, 5 μl 30% DMSO is dispensed per well. Next, 5 μl compound (100 μg/ml) is dispensed per well.\nWhen starting from 50 μg/ml compound stock in 15% DMSO, 10 μl compound is added per well.\n20 μl enzyme mix is added into each well of the assay plate. The compound and enzyme are incubated at room temperature for 15 minutes.\n(3) Template mix (prepared in advance)\nA tube of RNA (5 μg/tube stored in 75% ethanol and 0.3 M sodium acetate) is microcentrifuged for 20 minutes at 4° C. (one tube supplies 1-1.5 plates). Ethanol is removed from the tube by gently inverting the tube. The RNA is vacuum dried and re-suspended in 1 ml of DEPC water in a tightly capped tube. To dissolve RNA, the RNA solution is incubated on ice for ˜60 minutes and gently vortexed. It is spun briefly to ensure all RNA solution at the bottom of the tube before opening cap. The RNA solution is then gently transferred into a 5 ml or larger tube. Another 3 ml of DEPC water is added to obtain a total of 4 ml of volume.\nThe following volumes of reagents are added:\n20 μl template mix per reaction is added (i.e. 20 ng of pOF per reaction or ˜3 nM)\n(4) The reaction is incubated at room temperature (22-25° C.) for 2 hours.\n(5) The reaction is quenched by adding 50 μl of 170 mM EDTA.\nFinal concentration of EDTA is 85 mM.\n(6) The filters of Millipore multiscreen assay plate is pre-wet by adding 200 μl of 0.5 M sodium phosphate buffer, pH 7.0 into each well. This stands at room temperature for 2-3 minutes.\n(7) The multiscreen filter plate is placed onto a Millipore Manifold under vacuum to allow buffer to flow through. After the vacuum is turned off, 80 μl of the reaction product is transferred into each well of the filter plate. This stands for 2-3 minutes prior to turning on the vacuum again to filter the reaction product.\n(8) The vacuum is then removed. 200 μl of 0.5 M sodium phosphate buffer is added, pH 7.0, into each well. The vacuum is then turned on.\nStep (8) is repeated three more times.\n(9) Next the polypropylene bottom is removed, and the filter is spot dried with a paper towel. The filter plate is air-dried on a bench for 1 hour before adding 40 μl Super Mix scintillant. The top of the plate is sealed with a tape and the plate is placed into a Packard carrier or micro-beta carrier.\n(10) The plate is counted using a Packard Topcount or micro-beta counter. Count (for example using Program 10) for ^33P in Top count or ^33P program in micro-beta.\nThe percent inhibition is calculated after background subtraction as a percent reduction of activity relative to the positive control (average value of the plate excluding the negative controls). For the primary screen hits were chosen as showing >75% inhibition.\nSee, Ferrari et al. 1999. J. Virology 73:1649-1654: “Characterization of soluble Hepatitis C virus RNA-dependent RNA polymerase expressed in E. coli and Takamizawa et al 1991” and J. Virology 65:1105-1113: “Structure and characterization of Hepatitis C virus genome isolated from human carriers,” both reference are hereby incorporated by reference.", "data": [{"smiles": "CCCCC1(C(=O)O)CCc2c1[nH]c1c(C)ccc(C#N)c21", "note": "(stereo not shown) [Example 15, 3-Butyl-8-cyano-5-methyl-1,2,3,4-tetrahydro-cyclopenta[b]indole-3-carboxylic acid]", "values": [{"measurement": "IC50", "value": 4.6, "unit": "µM"}]}, {"smiles": "C=CCC1(C(=O)O)CCc2c1[nH]c1c(F)ccc(C#N)c21", "note": "(stereo not shown) [Example 14, 3-Allyl-8-cyano-5-fluoro-1,2,3,4-tetrahydro-cyclopenta[b]indole-3-carboxylic acid]", "values": [{"measurement": "IC50", "value": 14.5, "unit": "µM"}]}, {"smiles": "CCCC1(CC(=O)O)CCCc2c1[nH]c1cc(F)cc(F)c21", "note": "(stereo not shown) [Example 30, (5,7-Difluoro-1-propyl-2,3,4,9-tetrahydro-1H-carbazol-1-yl)-acetic acid]", "values": [{"measurement": "IC50", "value": 30.7, "unit": "µM"}]}, {"smiles": "CCCC1(C(=O)O)CCc2c1[nH]c1c(F)ccc(C#N)c21", "note": "(stereo not shown) [Example 21, 8-Cyano-5-fluoro-3-propyl-1,2,3,4-tetrahydro-cyclopenta[b]indole-3-carboxylic acid]", "values": [{"measurement": "IC50", "value": 8.1, "unit": "µM"}]}]}
